Data set [1] concerns the target T1, cellodextrin phosphorylase (CDP) (Acetivibrio thermocellus, UniProt Q93HT8).
T1 construct: gene cdp-ym4
Briefly: X-ray crystallography, […] Å. Format: binding.

Data set [2] deals with T1, cellodextrin phosphorylase (CDP). Briefly: capillary electrophoresis competition assay of glucan polymerization. Type of data set: biochemical.
Substrate in data set [3]: OC[C@H]1O[C@@H](Oc2ccccc2)[C@H](O)[C@@H](O)[C@@H]1O
Nature of the data set: phosphate release assay, Michaelis-Menten fit. Format: biochemical, Acetivibrio thermocellus. Particulars: acceptor, synthetic direction, 10 mM Glc-1-P, HEPES 50 mM pH 7.5, 21 °C.

Here are results for six molecules from paper PMC5667895, “Cellodextrin phosphorylase from Ruminiclostridium thermocellum: X-ray crystal structure and substrate specificity analysis” (Carbohydrate Research, 2017).

What is called Km is the substrate concentration at which the rate is half of its maximum. As usually defined, the kcat is the maximal rate divided by the concentration of active sites. As a reminder, the kcat/Km is the turnover number divided by the Michaelis constant.

Turning to `OC[C@H]1O[C@@H](O[C@H]2[C@H](O)[C@@H](O)[C@H](O[C@H]3[C@H](O)[C@@H](O)[C@H](O[C@H]4[C@H](O)[C@@H](O)C(O)O[C@@H]4CO)O[C@@H]3CO)O[C@@H]2CO)[C@H](O)[C@@H](O)[C@@H]1O` (stereo partly drawn) [(β-1→4-Glc)4], in data set [1] (crystal soaked with 10 mM cellohexaose, density modelled as cellotetraose, with phosphate, active site subsites −1 to +3), the “X-ray crystallography, 3.0 Å” value was “additional electron density in the active site cleft, which was interpreted as a cellotetraose molecule”.

`N[C@H]1[C@H](O[C@H]2[C@H](O)[C@@H](O)[C@H](O[C@H]3[C@H](O)[C@@H](O)C(O)O[C@@H]3CO)O[C@@H]2CO)O[C@H](CO)[C@@H](O)[C@@H]1O` (stereo partly drawn) [(β-1→4-GlcN(Glc)2)]: in data set [2] (5 mM trisaccharide vs 0.5 mM (β-1→4-Glc)3-APTS, 50 mM Glc-1-P, HEPES 50 mM pH 7.6, 40 °C, acceptor competition, also an acceptor substrate), the “capillary electrophoresis competition assay of glucan polymerization” value is reported as “the average extension of (β-1→4-Glc)3-APTS reduced substantially”. In the case of `OC1OC[C@@H](O[C@@H]2OC[C@@H](O[C@@H]3OC[C@@H](O)[C@H](O)[C@H]3O)[C@H](O)[C@H]2O)[C@H](O)[C@H]1O` (stereo partly drawn) [(β-1→4-Xyl)3], the “capillary electrophoresis competition assay of glucan polymerization” value in data set [2] (10 mM xylotriose vs 13.5 μM (β-1→4-Glc)6-APTS, 10 mM Glc-1-P, HEPES 50 mM pH 7.5, 40 °C, acceptor competition) is reported as “suggesting binding of xylotriose to the active site of the enzyme”. `O=P(O)(O)O[C@H]1O[C@H](CO)[C@@H](O)[C@H](O)[C@@H]1O` [Man-1-P]: in data set [2] (10 mM Man-1-P vs 1 mM Glc-1-P and 2 μM (β-1→4-Glc)6-APTS, HEPES 50 mM pH 7.5, 40 °C, competitive with donor), the “capillary electrophoresis competition assay of glucan polymerization” value is given as “Man-1-P caused a great decrease in glucan oligomer length”. Consider `O=P(O)(O)O` [phosphate], for which the “X-ray crystallography, 3.0 Å” value in data set [1] (crystal grown with 10 mM phosphate buffer, active site, adjacent to the glucan) is listed as “interpreted as a cellotetraose molecule with an adjacent phosphate ion”.

B1: cellodextrin phosphorylase (CDP) (Acetivibrio thermocellus) (protein)
chain: MITKVTARNNKITPVELLNQKFGNKINLGNFADAVFTDAAFKNVAGIANLPMKAPVMQVLMENCIVSKYLKQFVPDRSVCFVEEGQKFYIVLEDGQKIEVPEDVNKALKATVSDVKHWAGYLTEDGEHVIDLLKPAPGPHFYVNLLIGNRLGFKRTLQTTPKSVVDRFGRGSFRSHAATQVLATRFDMRQEENGFPANRQFYLYEDGKQIFYSALIDDNIVEATCKHSCNRTVIKYKTACNLEITRTIFLVPHKKGFPLATELQRIEIKNASDKARNLSITYTGMFGTGAVHAIFEDVTYTNVIMQSAALYNDKGEFIGITPDYYPEEFKQDTRFVTMIVRNGDEKSFPQSFCTDYNDFVGTGTLEHPAGGCNLNNKLNRKGPGFFALGAPFTVEPGKTVIIDTFTGLSSSKDNENYSDAVMLRELDNLLRYFEKSESVEETLNEIINFHENYGKYFQFNTGNKLFDSGFNRNLAFQVLYQTFMSRSFGQTQKGYREIGFREIQDLFASMYYFINIGYQDFVKELLFEWTANVYKMGYANHNFYWVGKQPGLYSDDSLWLLQAYYRYIIYTKDTSVLNEEVPVADGNNEKRAVRETLKAIIQYSACISVGDHGLPLLDLADWNDCLKIASNSIDGATKEKLYYEQLKKTNGKYGDRFMSDYSESVMNAFLLKLAIDHLAEIATLDNDTQLAQQMSELSKEVTDRIQKHAWKENFFARVLINRYKDGSYTYLGAKGDKLSADPNIDGVYFLNSFAWSVLSDVATDEQIAIMVDVIKKHLLTPYGLRLVTPADLNKIANDTATGHYFFGDRENGAVFKHASMMAVAALIKAAKKVKDNELAKEMARIAYFMIDLVLPYKNLENPFQVAGNPRICTQYINTDTGENIGPLLSGTATWLNLNLISLAGIEYTRDGISFNPILREEETQLNFTLKAPKCSYKFSITKPVGFARMESSEYELFVDGQKIDNTVIPMYTDEKEHIVTLKFK
On to B1, for which, in data set [3], the Km was 24 ± 13 mM, the kcat was 15 ± 6.3 s⁻¹ and the kcat/Km was 630 M⁻¹ s⁻¹.
